Values after ≈ are worked out from the molar mass of the structure shown. Like-named read-outs stand apart in the source and are kept apart here.
Experiments:
Assay in all cases: In vitro antibacterial activity, microtitration dilution method (MIC)
Format in all cases: cell-based
Escherichia coli Vogel = settings: Escherichia coli Vogel, microtitration dilution; read-out: Minimal Inhibitory Concentration MIC
Excerpt: (§1) The compounds of the invention display antibacterial activity when tested by the microtitration dilution method as described in Heifetz, et al, Antimicr. Agents & Chemoth., 6, 124 (1974), which is incorporated herein by reference. By use of this method, the followed minimum inhibitory concentration values (MICs in μg/mL) were obtained for representative compounds of the invention.

[1] = tested on: Enterobacter cloacae MA 2646
Excerpt: as §1

[2] = tested on: Staphylococcus aureus H 228; settings: H228; Staphylococcus aureus H 228, microtitration dilution; read-out: Minimal Inhibitory Concentration MIC
Excerpt: as §1

[3] = tested on: Streptococcus pyogenes C-203; settings: C203; Streptococcus pyogenes C-203, microtitration dilution; read-out: Minimal Inhibitory Concentration MIC
Excerpt: as §1

[4] = tested on: Pseudomonas aeruginosa UI-18; settings: UI18; Pseudomonas aeruginosa UI-18, microtitration dilution; read-out: Minimal Inhibitory Concentration MIC
Excerpt: (§2) Agents & Chemoth., 6, 124 (1974), which is incorporated herein by reference.

[5] = tested on: Streptococcus faecalis MGH-2; settings: Enterococcus faecalis, MGH2; Streptococcus faecalis MGH-2, microtitration dilution; read-out: Minimal Inhibitory Concentration MIC
Excerpt: as §2

[6] = tested on: Streptococcus pneumoniae SV-1; settings: SV1; Streptococcus pneumoniae SV-1, microtitration dilution; read-out: Minimal Inhibitory Concentration MIC
Excerpt: as §2

Proteus rettgeri M 1771 = settings: Providencia rettgeri
Excerpt: as §2

[7] = tested on: Klebsiella pneumoniae MGH-2
Excerpt: as §2

[8] = tested on: Staphylococcus aureus UC-76; settings: UC76; Staphylococcus aureus UC-76, microtitration dilution; read-out: Minimal Inhibitory Concentration MIC
Excerpt: as §2

[9] = Enterobacter cloacae, MA2646, read-out: Minimal Inhibitory Concentration MIC
[10] = M1771, Proteus rettgeri M 1771, microtitration dilution, read-out: Minimal Inhibitory Concentration MIC
[11] = MGH2, Klebsiella pneumoniae MGH-2, microtitration dilution, read-out: Minimal Inhibitory Concentration MIC
[12] = MA2646, Enterobacter cloacae MA 2646, microtitration dilution, read-out: Minimal Inhibitory Concentration MIC
[13] = Klebsiella pneumoniae, MGH2, read-out: Minimal Inhibitory Concentration MIC

Compound	MIC (Escherichia coli Vogel) [µg/mL]	MIC [1, 9] [µg/mL]	MIC [2] [µg/mL]	MIC [3] [µg/mL]	MIC [4] [µg/mL]	MIC [5] [µg/mL]	MIC [6] [µg/mL]	MIC (Proteus rettgeri M 1771; [10]) [µg/mL]	MIC [7, 11] [µg/mL]	MIC [8] [µg/mL]	MIC [1, 12] [µg/mL]	MIC [7, 13] [µg/mL]	MIC (Proteus rettgeri M 1771; M1771, read-out: Minimal Inhibitory Concentration MIC) [µg/mL]
Cc1c(F)c(N2CCC(N)C2)c(Cl)c2c1c(=O)c(C(=O)O)cn2C1CC1 (stereo not shown) [Ex. 11, 7-(3-Amino-1-pyrrolidinyl)-8-chloro-1-cyclopropyl-6-fluoro-1,4-dihydro-5-methyl-4-oxo-3-quinolinecarboxylic acid]	0.013 (≈ 0.0342 µM)	0.05 (≈ 0.132 µM)	0.025 (≈ 0.0658 µM)	0.05 (≈ 0.132 µM)	0.2 (≈ 0.527 µM)	0.05 (≈ 0.132 µM)	0.025 (≈ 0.0658 µM)	0.05 (≈ 0.132 µM)	0.05 (≈ 0.132 µM)	0.013 (≈ 0.0342 µM)	–	–	–
Cc1c(F)c(N2CCNC(C)C2)cc2c1c(=O)c(C(=O)O)cn2-c1ccc(F)cc1F (stereo not shown) [Ex. 17a, 6-Fluoro-1-(2,4-difluorophenyl)-1,4-dihydro-5-methyl-7-(3-methyl-1-piperazinyl)-4-oxo-3-quinolinecarboxylic acid]	0.1 (≈ 0.232 µM)	–	0.1 (≈ 0.232 µM)	0.1 (≈ 0.232 µM)	1.6 (≈ 3.71 µM)	0.4 (≈ 0.927 µM)	0.05 (≈ 0.116 µM)	0.8 (≈ 1.85 µM)	0.4 (≈ 0.927 µM)	0.025 (≈ 0.0579 µM)	0.2 (≈ 0.464 µM)	–	–
Cc1c(F)c(N2CCC(N)C2)cc2c1c(=O)c(C(=O)O)cn2-c1ccc(F)cc1F (stereo not shown) [Ex. 17c, 7-(3-Amino-1-pyrrolidinyl)-6-fluoro-1-(2,4-difluorophenyl)-1,4-dihydro-5-methyl-4-oxo-3-quinolinecarboxylic acid]	0.05 (≈ 0.12 µM)	0.05 (≈ 0.12 µM)	0.05 (≈ 0.12 µM)	0.05 (≈ 0.12 µM)	0.8 (≈ 1.92 µM)	0.1 (≈ 0.24 µM)	0.025 (≈ 0.0599 µM)	0.2 (≈ 0.479 µM)	–	0.013 (≈ 0.0311 µM)	–	0.1 (≈ 0.24 µM)	–
Cc1c(F)c(N2CCC(N)C2)c(F)c2c1c(=O)c(C(=O)O)cn2-c1ccc(F)cc1F (stereo not shown) [Ex. 15, 7(3-Amino-1-pyrrolidinyl)-6,8-difluoro-1-(2,4-difluorophenyl)-1,4-dihydro-5-methyl-4-oxo-3-quinolinecarboxylic acid]	0.025 (≈ 0.0574 µM)	–	0.05 (≈ 0.115 µM)	0.1 (≈ 0.23 µM)	0.8 (≈ 1.84 µM)	0.2 (≈ 0.459 µM)	0.1 (≈ 0.23 µM)	0.2 (≈ 0.459 µM)	–	0.025 (≈ 0.0574 µM)	0.025 (≈ 0.0574 µM)	0.1 (≈ 0.23 µM)	–
Cc1c(F)c(N2CCC(C)(CN)C2)cc2c1c(=O)c(C(=O)O)cn2-c1ccc(F)cc1F (stereo not shown) [Ex. 17e, 7-[3-(Aminomethyl)-3-methyl-1-pyrrolidinyl]-6-fluoro-1(2,4-difluorophenyl)-1,4-dihydro-5-methyl-4-oxo-3-quinolinecarboxylic acid]	0.4 (≈ 0.898 µM)	–	0.05 (≈ 0.112 µM)	0.025 (≈ 0.0561 µM)	3.1 (≈ 6.96 µM)	0.2 (≈ 0.449 µM)	0.013 (≈ 0.0292 µM)	0.8 (≈ 1.8 µM)	0.8 (≈ 1.8 µM)	0.013 (≈ 0.0292 µM)	0.4 (≈ 0.898 µM)	–	–
Cc1c(F)c(N2CCC(N)C2)nc2c1c(=O)c(C(=O)O)cn2C1CC1 (stereo not shown) [Ex. 18, 7-(3-Amino-1-pyrrolidinyl)-1-cyclopropyl-6-fluoro-1,4-dihydro-5-methyl-4-oxo-1,8-naphthyridine-3-carboxylic acid]	0.013 (≈ 0.0375 µM)	–	0.25 (≈ 0.722 µM)	0.025 (≈ 0.0722 µM)	0.2 (≈ 0.577 µM)	0.05 (≈ 0.144 µM)	0.013 (≈ 0.0375 µM)	–	0.025 (≈ 0.0722 µM)	0.013 (≈ 0.0375 µM)	0.013 (≈ 0.0375 µM)	–	0.1 (≈ 0.289 µM)
Cc1c(F)c(N2CCNC(C)C2)cc2c1c(=O)c(C(=O)O)cn2C1CC1 (stereo not shown) [Ex. 7, 1-Cyclopropyl-6-fluoro-1,4-dihydro-5-methyl-7-(3-methyl-1-piperazinyl)-4-oxo-3-quinolinecarboxylic acid]	0.013 (≈ 0.0362 µM)	–	0.1 (≈ 0.278 µM)	0.05 (≈ 0.139 µM)	0.8 (≈ 2.23 µM)	0.1 (≈ 0.278 µM)	0.025 (≈ 0.0696 µM)	0.2 (≈ 0.556 µM)	0.05 (≈ 0.139 µM)	0.025 (≈ 0.0696 µM)	0.025 (≈ 0.0696 µM)	–	–

Source: patent US5585491A, “Antibacterial agents” (Otsuka Pharmaceutical Co., Ltd., priority 1995, dated 1996)
